Test results taken from patent US20160256480A1, “THERAPEUTIC COMPOSITION FOR WOUND HEALING” (priority 2015, published 2016).

Tests used:
[1] = system: J774A.1 cells; test: Incubation of J774A.1 mouse macrophages with beta-glucan, phase-contrast examination of cell health; assay type: cell-based
Procedure: (§1) J774A.1 cells are mouse monocyte/macrophage cells. These cells are adherent and upon death will detach from the surface fo the culture flasks or coverslips. Cells were grown to approximately 80% confluence in 24-well plates on 12 mm coverslips overnight. Cells were grown in a minimum essential medium with insulin (IMEMZO, Irvine Scientific, Santa Ana, Calif.) with 5% fetal bovine serum (FBS, Atlanta Biologicals, Norcross, Ga.). Beta-glucan was dissolved with MilliQ Ultrapure water. […] Beta-glucan was diluted with IMEMZO media and added to the cells for the duration of the incubation. Cells were examined daily and phase-contrast images taken at specific intervals to capture the health of the cells. All images were captured at 200× magnification.
The beta-glucan was purchased from Sigma-Aldrich (CAS Number 9051-97-2; MDL number MFCD00466918). Beta-glucan source was Euglena gracilis.

[2] = Dissolution of beta-glucan in MilliQ Ultrapure water; assay type: physicochemical
Procedure: as §1

For “beta-1,3-Glucan from Euglena gracilis [beta-glucan]”, which “effect on cell growth and proliferation” value ([1]; 1 mg/ml beta-glucan over 48 hours) is on record?
Its value is “no adverse affect on the cell growth and proliferation”.

And the “increase in cell numbers” value ([1]; 3 mg/ml beta-glucan, base media IMEMZO, 48 hours)?
Its value is “increased in numbers at a rate that is typical in the base media”.

And the “visible pathological effects on cellular growth or survival” value ([1]; 3 mg/ml beta-glucan, mouse macrophages, 48 hour culture period)?
Its value is “did not pose any visible pathological effects on cellular growth or survival”.

What about the “cell size and adherence” value ([1]; 3 mg/ml beta-glucan, over the 48 hour culture period) of the same substance?
Its value is “did not decrease in size and remained adherent”.

What about the solubility in water [2] of the same substance?
The solubility in water was “only partially dissolved”.
